The values that follow come from ChEMBL document CHEMBL3272183, “Analgesics. 1. Synthesis and analgesic properties of N-sec-alkyl- and N-tert-alkylnormorphines” (J Med Chem, 1978).

Activity calls are given as the source filed them. The rule behind the calls is not given here.

The target of experiment [1] is T1, Opioid receptor (Rattus norvegicus, UniProt P33533+P34975+P33535). The experiment is described as follows: Displacement of [3H]-naloxone from rat opioid receptor after 30 mins by liquid scintillation counting analysis in absence of NaCl. It is filed as protein assay.
In experiment [2] the target is T1, Opioid receptor. As to the kind of experiment: Displacement of [3H]-naloxone from rat opioid receptor after 30 mins by liquid scintillation counting analysis in presence of NaCl. It is filed as protein assay.
Experiment [3] is filed under the species Mus musculus. As to the kind of experiment: Analgesic activity in Swiss-Webster mouse measured for 20 mins by tail flick test. Type of experiment: functional.
For experiment [4], the species on record is Mus musculus. The experiment is described as follows: Analgesic activity in Swiss-Webster mouse assessed as reduction of […]-induced writhing. Type of experiment: functional.
Experiment [5] relates to Mus musculus. The experiment is described as follows: In vivo inhibition of morphine-induced straub-tail response in sc dosed Swiss-Webster mouse measured for 30 mins. It is filed as functional. The conditions noted are these: for ED50: 0.5 h.

Turning to `Oc1ccc2c3c1O[C@H]1[C@@H](O)C=C[C@H]4[C@@H](C2)N(C2CCCCCC2)CC[C@@]341`, the IC50 at Opioid receptor [1] is reported as 19 nM; on Opioid receptor [2], 150 nM. In addition, the ED50 was greater than 136 µmol/kg in the experiment filed under Mus musculus [3], 9.9 µmol/kg in the experiment listed under Mus musculus [4] and 60.8 µmol/kg in the experiment with Mus musculus [5].

For `C=C[C@H](C)N1CC[C@]23c4c5ccc(O)c4O[C@H]2[C@@H](O)C=C[C@H]3[C@H]1C5`, the results for the IC50 at Opioid receptor [1] and on Opioid receptor [2] were 16 nM and 25 nM, respectively. This compound displayed an ED50 in the experiment listed under Mus musculus [3] of 105 µmol/kg.

On to `C=CC(C)(C)N1CC[C@]23c4c5ccc(O)c4O[C@H]2[C@@H](O)C=C[C@H]3[C@H]1C5`, for which the IC50 at Opioid receptor [1] and on Opioid receptor [2] was greater than 1000 nM throughout. Besides, the figures for the ED50 in the experiment listed under Mus musculus [3] and in the experiment filed under Mus musculus [4] were greater than 295 µmol/kg and 74 µmol/kg, respectively.

In the case of `CC(Cc1ccccc1)N1CC[C@]23c4c5ccc(O)c4O[C@H]2[C@@H](O)C=C[C@H]3[C@H]1C5` (some centres not stated), the half-inhibitory concentration (IC50) is on record as 3.4 nM at Opioid receptor [1] and 125 nM on Opioid receptor [2]. Also, the ED50 in the experiment listed under Mus musculus [3] is 4.3 µmol/kg; in the experiment filed under Mus musculus [4], 0.13 µmol/kg. Moreover, the inhibition result with Mus musculus [5] was “inactive”.

For `CC[C@H](C)N1CC[C@]23c4c5ccc(O)c4O[C@H]2[C@@H](O)C=C[C@H]3[C@H]1C5`, the IC50 is 28 nM at Opioid receptor [1] and 62 nM on Opioid receptor [2].

Take `CC(C)(Cc1ccccc1)N1CC[C@]23c4c5ccc(O)c4O[C@H]2[C@@H](O)C=C[C@H]3[C@H]1C5`: the IC50 on Opioid receptor [1] and at Opioid receptor [2] was 1000 nM each time. The ED50 in the experiment listed under Mus musculus [3] is greater than 310 µmol/kg; in the experiment listed under Mus musculus [4], greater than 176 µmol/kg.

Consider `CCCC(C)N1CC[C@]23c4c5ccc(O)c4O[C@H]2[C@@H](O)C=C[C@H]3[C@H]1C5` (some centres not stated), for which the IC50 at Opioid receptor [1] was determined as 37 nM; at Opioid receptor [2], 340 nM. The ED50 was greater than 439 µmol/kg in the experiment filed under Mus musculus [3], 9 µmol/kg in the experiment filed under Mus musculus [4] and 80.8 µmol/kg with Mus musculus [5].

Regarding `Oc1ccc2c3c1O[C@H]1[C@@H](O)C=C[C@H]4[C@@H](C2)N(C2CCCC2)CC[C@@]341`, the IC50 at Opioid receptor [1] stood at 34 nM; on Opioid receptor [2], 45 nM. Moreover, the ED50 in the experiment listed under Mus musculus [3] was found to be 124 µmol/kg; in the experiment listed under Mus musculus [4], 15.5 µmol/kg; in the experiment on Mus musculus [5] it was 15.5 µmol/kg.

In the case of `Oc1ccc2c3c1O[C@H]1[C@@H](O)C=C[C@H]4[C@@H](C2)N(CCc2ccccc2)CC[C@@]341`, the results for the IC50 at Opioid receptor [1] and on Opioid receptor [2] were 4.2 nM and 133 nM, respectively. For the same compound, the ED50 in the experiment listed under Mus musculus [3] is 1.7 µmol/kg; in the experiment listed under Mus musculus [4], 0.27 µmol/kg. In addition, the inhibition result in the experiment with Mus musculus [5] was “inactive”.

On to `C=C[C@@H](C)N1CC[C@]23c4c5ccc(O)c4O[C@H]2[C@@H](O)C=C[C@H]3[C@H]1C5`, for which the IC50 at Opioid receptor [1] is on record as 27 nM; on Opioid receptor [2] it was 80 nM.

`C=CCN1CC[C@]23c4c5ccc(O)c4O[C@H]2[C@@H](O)C=C[C@H]3[C@H]1C5` [NALORPHINE]: the figures for the IC50 on Opioid receptor [1] and at Opioid receptor [2] were 2 nM and 6 nM, respectively. The ED50 in the experiment listed under Mus musculus [4] was 3.2 µmol/kg.

`Oc1ccc2c3c1O[C@H]1[C@@H](O)C=C[C@H]4[C@@H](C2)N(C2C=CCCC2)CC[C@@]341` (some centres not stated): the figures for the IC50 at Opioid receptor [1] and at Opioid receptor [2] were 51 nM and 130 nM, respectively. For the same compound, the figures for the ED50 in the experiment filed under Mus musculus [3] and in the experiment on Mus musculus [5] were 79.7 µmol/kg and 23.8 µmol/kg, respectively.

Consider `CCC(CC)N1CC[C@]23c4c5ccc(O)c4O[C@H]2[C@@H](O)C=C[C@H]3[C@H]1C5`, for which the IC50 at Opioid receptor [1] is 78 nM; on Opioid receptor [2], 175 nM.

In the case of `CN1CC[C@]23c4c5ccc(O)c4O[C@H]2[C@@H](O)C=C[C@H]3[C@H]1C5` [MORPHINE], the ED50 was 10.5 µmol/kg in the experiment listed under Mus musculus [3] and 1.5 µmol/kg in the experiment listed under Mus musculus [4]. The inhibition entry in the experiment with Mus musculus [5] was “inactive”.

Regarding `CC[C@@H](C)N1CC[C@]23c4c5ccc(O)c4O[C@H]2[C@@H](O)C=C[C@H]3[C@H]1C5`, the IC50 at Opioid receptor [1] was 60 nM; at Opioid receptor [2], 110 nM.

For `Oc1ccc2c3c1O[C@H]1[C@@H](O)C=C[C@H]4[C@@H](C2)N(C2CCCCC2)CC[C@@]341`, the IC50 on Opioid receptor [1] was 38 nM; at Opioid receptor [2], 92 nM. The ED50 in the experiment listed under Mus musculus [3] was greater than 212 µmol/kg; in the experiment listed under Mus musculus [4], 15.7 µmol/kg.

As to `CCC(C)(C)N1CC[C@]23c4c5ccc(O)c4O[C@H]2[C@@H](O)C=C[C@H]3[C@H]1C5`, the IC50 on Opioid receptor [1] and on Opioid receptor [2] was 1000 nM in each case. Besides, the ED50 in the experiment filed under Mus musculus [3] is greater than 580 µmol/kg; in the experiment filed under Mus musculus [4], greater than 290 µmol/kg.

`CCCN1CC[C@]23c4c5ccc(O)c4O[C@H]2[C@@H](O)C=C[C@H]3[C@H]1C5`: the IC50 on Opioid receptor [1] and on Opioid receptor [2] was 14 nM in each case. Further, the results for the ED50 in the experiment listed under Mus musculus [3], in the experiment filed under Mus musculus [4] and in the experiment with Mus musculus [5] were 51 µmol/kg, 29 µmol/kg and 0.6 µmol/kg, respectively.
